Among the data in PubChem BioAssay (NCI) are GI50 and TGI values, retold here.

Some test systems named below: DU-145 prostate; EKVX NSCLC; KM12 colon; MALME-3M melanoma; MDA-MB-231 breast; NCI-H23 lung; OVCAR-3 ovarian; SF-539 CNS; SK-MEL-2 melanoma; SNB-75 CNS.
Assay in all cases: DTP human tumour cell line panel, 48 h

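Growth conditions: 96-well plates. Treatment: test compound, 48 hours, 5 concentrations. Analysis: linear interpolation between bracketing concentrations; unreached endpoints set to highest concentration. GI50 marks 50% less growth. TGI: total growth inhibition.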

As to `Cn1c(/C=C(\C#N)c2cccc(C(F)(F)F)c2)nc2c(N3CCOCC3)nc(Cl)nc21`, the GI50 (in general, the concentration that inhibits growth by half) is 1.22 µM in the assay with DU-145 prostate; 1.21 µM with EKVX NSCLC; 1.82 µM with KM12 colon; 1.39 µM in the assay with MALME-3M melanoma; 1.05 µM in the assay on MDA-MB-231 breast; 1.49 µM in the assay with NCI-H23 lung. Also, the GI50 with OVCAR-3 ovarian is 0.665 µM; in the assay on SF-539 CNS, 1.25 µM; with SK-MEL-2 melanoma, 1.47 µM; in the assay with SNB-75 CNS it was 0.159 µM. In addition, the total growth inhibition concentration (TGI) (in general, the concentration giving total growth inhibition) worked out at 2.48 µM in the assay on DU-145 prostate; 2.73 µM with EKVX NSCLC; 3.58 µM with KM12 colon; 2.79 µM in the assay with MALME-3M melanoma; 2.3 µM in the assay on MDA-MB-231 breast; 3.18 µM in the assay with NCI-H23 lung. The total growth inhibition concentration (TGI) in the assay on OVCAR-3 ovarian turned out to be 1.87 µM; in the assay with SF-539 CNS it was 2.52 µM; in the assay on SK-MEL-2 melanoma, 2.96 µM; in the assay on SNB-75 CNS, 1.15 µM.
